# Experiments:
# [1] = target: AP2-associated protein kinase 1 (Homo sapiens) (UniProt Q2M2I8); assay: Binding affinity to wild-type human partial length AAK1 (G25 to L333 residues) expressed in bacterial expression system assessed as residual binding level at 10 uM by Kinomescan method relative to control
# [2] = target: Activin receptor type-1-like (Homo sapiens) (UniProt P37023); assay: Binding affinity to wild-type human ACVRL1 (L164 to Q503 residues) expressed in bacterial expression system assessed as residual binding level at 10 uM by Kinomescan method relative to control
# [3] = target: Serine/threonine-protein kinase B-raf (Homo sapiens) (UniProt P15056); assay: Binding affinity to wild-type human partial length BRAF (S429 to E741 residues) expressed in mammalian expression system assessed as residual binding level at 10 uM by Kinomescan method relative to control
# [4] = target: Serine/threonine-protein kinase BRSK1 (Homo sapiens) (UniProt Q8TDC3); assay: Binding affinity to wild-type human partial length BRSK1 (M1 to E754 residues) expressed in bacterial expression system assessed as residual binding level at 10 uM by Kinomescan method relative to control
# [5] = target: Mitogen-activated protein kinase 4 (Homo sapiens) (UniProt P31152); assay: Binding affinity to wild-type human partial length ERK4 (M1 to L365 residues) expressed in bacterial expression system assessed as residual binding level at 10 uM by Kinomescan method relative to control
# [6] = target: Fibroblast growth factor receptor 1 (Homo sapiens) (UniProt P11362); assay: Binding affinity to wild-type human partial length FGFR1 (P357 to V669 residues) expressed in bacterial expression system assessed as residual binding level at 10 uM by Kinomescan method relative to control
# [7] = system: Receptor-type tyrosine-protein kinase FLT3 (Homo sapiens), P36888 [D835H]; assay: Binding affinity to human partial length FLT3 D835H mutant (V592 to Y969 residues) expressed in bacterial expression system assessed as residual binding level at 10 uM by Kinomescan method relative to control
# [8] = system: Receptor-type tyrosine-protein kinase FLT3 (Homo sapiens), P36888 [N841I]; assay: Binding affinity to human partial length FLT3 N841I mutant (V592 to Y969 residues) expressed in bacterial expression system assessed as residual binding level at 10 uM by Kinomescan method relative to control
# [9] = target: Homeodomain-interacting protein kinase 1 (Homo sapiens) (UniProt Q86Z02); assay: Binding affinity to wild-type human partial length HIPK1 (M146 to I555 residues) expressed in mammalian expression system assessed as residual binding level at 10 uM by Kinomescan method relative to control
# Sequence of Homeodomain-interacting protein kinase 1 (Homo sapiens) (Q86Z02 whole entry, looked up, the tested form may be a part): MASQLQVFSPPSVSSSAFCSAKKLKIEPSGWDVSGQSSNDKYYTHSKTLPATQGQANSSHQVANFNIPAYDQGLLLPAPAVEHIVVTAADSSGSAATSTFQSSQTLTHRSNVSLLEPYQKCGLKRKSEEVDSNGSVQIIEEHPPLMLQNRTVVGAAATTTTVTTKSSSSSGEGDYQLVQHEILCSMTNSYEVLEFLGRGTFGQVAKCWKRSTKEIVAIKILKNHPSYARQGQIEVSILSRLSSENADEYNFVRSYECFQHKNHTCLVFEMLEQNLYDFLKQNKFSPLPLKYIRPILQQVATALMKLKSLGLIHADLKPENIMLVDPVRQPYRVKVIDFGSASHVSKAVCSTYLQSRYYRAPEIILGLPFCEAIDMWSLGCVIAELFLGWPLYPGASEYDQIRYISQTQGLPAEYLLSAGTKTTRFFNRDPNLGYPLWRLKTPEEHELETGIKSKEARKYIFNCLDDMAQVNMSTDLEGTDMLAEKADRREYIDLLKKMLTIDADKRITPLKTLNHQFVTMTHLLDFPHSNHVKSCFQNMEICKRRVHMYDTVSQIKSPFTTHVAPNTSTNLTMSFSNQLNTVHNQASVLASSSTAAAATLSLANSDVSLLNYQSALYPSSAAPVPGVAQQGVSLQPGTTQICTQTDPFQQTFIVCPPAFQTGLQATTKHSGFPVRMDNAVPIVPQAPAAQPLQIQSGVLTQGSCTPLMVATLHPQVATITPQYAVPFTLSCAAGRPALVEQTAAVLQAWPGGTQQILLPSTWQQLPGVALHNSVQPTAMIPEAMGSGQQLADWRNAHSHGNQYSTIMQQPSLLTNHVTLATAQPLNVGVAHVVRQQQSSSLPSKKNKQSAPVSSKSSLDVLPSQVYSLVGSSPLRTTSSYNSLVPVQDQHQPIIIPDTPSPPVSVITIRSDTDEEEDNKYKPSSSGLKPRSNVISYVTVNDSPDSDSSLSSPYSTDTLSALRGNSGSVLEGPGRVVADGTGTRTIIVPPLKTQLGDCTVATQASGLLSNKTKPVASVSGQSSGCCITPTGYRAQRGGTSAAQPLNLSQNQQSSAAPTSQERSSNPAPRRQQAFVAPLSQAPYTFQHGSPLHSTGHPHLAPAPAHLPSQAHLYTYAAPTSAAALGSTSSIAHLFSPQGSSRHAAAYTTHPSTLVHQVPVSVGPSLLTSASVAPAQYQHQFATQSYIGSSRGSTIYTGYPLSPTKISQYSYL
# [10] = target: Mitogen-activated protein kinase kinase kinase 2 (Homo sapiens) (UniProt Q9Y2U5); assay: Binding affinity to wild-type human partial length MAP3K2 (S315 to H619 residues) expressed in mammalian expression system assessed as residual binding level at 10 uM by Kinomescan method relative to control
# [11] = target: Tyrosine-protein kinase Mer (Homo sapiens) (UniProt Q12866); assay: Binding affinity to wild-type human partial length MERTK (R557 to L884 residues) expressed in bacterial expression system assessed as residual binding level at 10 uM by Kinomescan method relative to control
# [12] = target: Dual specificity mitogen-activated protein kinase kinase 7 (Homo sapiens) (UniProt O14733); assay: Binding affinity to wild-type human full length MKK7 (M1 to R419 residues) expressed in mammalian expression system assessed as residual binding level at 10 uM by Kinomescan method relative to control
# [13] = target: MAP kinase-interacting serine/threonine-protein kinase 1 (Homo sapiens) (UniProt Q9BUB5); assay: Binding affinity to wild-type human full length MKNK1 (M1 to L424 residues) expressed in mammalian expression system assessed as residual binding level at 10 uM by Kinomescan method relative to control
# [14] = target: Serine/threonine-protein kinase Nek2 (Homo sapiens) (UniProt P51955); assay: Binding affinity to wild-type human partial length NEK2 (M1 to K309 residues) expressed in bacterial expression system assessed as residual binding level at 10 uM by Kinomescan method relative to control
# Sequence of Serine/threonine-protein kinase Nek2 (Homo sapiens) (P51955 whole entry, the tested form may be a part): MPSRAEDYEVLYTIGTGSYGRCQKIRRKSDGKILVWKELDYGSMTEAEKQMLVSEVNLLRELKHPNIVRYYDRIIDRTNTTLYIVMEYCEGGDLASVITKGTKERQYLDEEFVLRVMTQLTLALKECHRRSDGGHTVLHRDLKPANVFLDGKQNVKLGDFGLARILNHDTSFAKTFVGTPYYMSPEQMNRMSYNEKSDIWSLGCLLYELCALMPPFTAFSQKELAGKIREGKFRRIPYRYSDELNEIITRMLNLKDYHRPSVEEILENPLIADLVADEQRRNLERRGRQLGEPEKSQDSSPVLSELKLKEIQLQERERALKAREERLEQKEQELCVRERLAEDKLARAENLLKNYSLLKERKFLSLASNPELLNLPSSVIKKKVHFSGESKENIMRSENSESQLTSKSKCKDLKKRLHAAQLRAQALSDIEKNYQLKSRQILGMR
# [15] = target: Cyclin-dependent kinase 17 (Homo sapiens) (UniProt Q00537); assay: Binding affinity to wild-type human full length PCTK2 (M1 to F523 residues) expressed in bacterial expression system assessed as residual binding level at 10 uM by Kinomescan method relative to control
# [16] = target: Platelet-derived growth factor receptor beta (Homo sapiens) (UniProt P09619); assay: Binding affinity to wild-type human partial length PDGFRB (V582 to Y1009 residues) expressed in bacterial expression system assessed as residual binding level at 10 uM by Kinomescan method relative to control
# Sequence of Platelet-derived growth factor receptor beta (Homo sapiens) (P09619 whole entry, the tested form may be a part): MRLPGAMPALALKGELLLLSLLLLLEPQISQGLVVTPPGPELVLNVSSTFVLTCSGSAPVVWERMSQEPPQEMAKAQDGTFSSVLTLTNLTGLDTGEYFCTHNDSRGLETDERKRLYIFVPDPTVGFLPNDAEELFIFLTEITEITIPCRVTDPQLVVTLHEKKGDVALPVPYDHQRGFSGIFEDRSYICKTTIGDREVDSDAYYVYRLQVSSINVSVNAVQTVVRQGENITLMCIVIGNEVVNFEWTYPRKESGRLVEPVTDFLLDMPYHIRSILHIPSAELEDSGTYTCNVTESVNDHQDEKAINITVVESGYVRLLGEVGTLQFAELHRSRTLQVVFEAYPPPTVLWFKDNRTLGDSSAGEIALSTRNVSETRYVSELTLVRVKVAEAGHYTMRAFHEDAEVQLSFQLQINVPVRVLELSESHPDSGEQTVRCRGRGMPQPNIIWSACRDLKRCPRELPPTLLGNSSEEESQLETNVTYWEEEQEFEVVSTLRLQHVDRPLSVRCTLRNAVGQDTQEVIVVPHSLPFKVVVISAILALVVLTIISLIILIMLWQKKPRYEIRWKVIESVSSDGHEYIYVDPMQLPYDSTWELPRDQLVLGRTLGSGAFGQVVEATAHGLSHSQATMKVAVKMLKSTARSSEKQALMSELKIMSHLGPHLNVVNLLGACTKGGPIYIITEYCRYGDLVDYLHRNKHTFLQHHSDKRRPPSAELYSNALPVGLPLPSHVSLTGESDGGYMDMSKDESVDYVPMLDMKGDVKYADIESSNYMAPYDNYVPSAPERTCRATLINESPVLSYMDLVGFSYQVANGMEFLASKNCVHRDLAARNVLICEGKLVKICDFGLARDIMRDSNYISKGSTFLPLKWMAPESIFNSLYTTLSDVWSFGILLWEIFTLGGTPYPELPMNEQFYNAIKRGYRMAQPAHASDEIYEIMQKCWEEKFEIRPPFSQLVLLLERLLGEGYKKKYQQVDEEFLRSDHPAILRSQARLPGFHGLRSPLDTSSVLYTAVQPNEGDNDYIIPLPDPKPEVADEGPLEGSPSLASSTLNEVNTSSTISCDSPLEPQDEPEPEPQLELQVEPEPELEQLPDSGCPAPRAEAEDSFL
# [17] = target: Cyclin-dependent kinase 15 (Homo sapiens) (UniProt Q96Q40); assay: Binding affinity to wild-type human full length PFTAIRE2 (M1 to W384 residues) expressed in bacterial expression system assessed as residual binding level at 10 uM by Kinomescan method relative to control
# [18] = system: Phosphatidylinositol 4,5-bisphosphate 3-kinase catalytic subunit alpha isoform (Homo sapiens), P42336 [C420R]; assay: Binding affinity to human partial length PIK3CA C420R mutant (R108 to N1068 residues) expressed in mammalian expression system assessed as residual binding level at 10 uM by Kinomescan method relative to control
# [19] = target: Serine/threonine-protein kinase pim-2 (Homo sapiens) (UniProt Q9P1W9); assay: Binding affinity to wild-type human partial length PIM2 (M1 to E291 residues) expressed in bacterial expression system assessed as residual binding level at 10 uM by Kinomescan method relative to control
# [20] = target: Serine/threonine-protein kinase N2 (Homo sapiens) (UniProt Q16513); assay: Binding affinity to wild-type human partial length PKN2 (E634 to C984 residues) expressed in bacterial expression system assessed as residual binding level at 10 uM by Kinomescan method relative to control
# [21] = target: TGF-beta receptor type-1 (Homo sapiens) (UniProt P36897); assay: Binding affinity to wild-type human partial length TGFBR1 (D179 to M503 residues) expressed in bacterial expression system assessed as residual binding level at 10 uM by Kinomescan method relative to control
# [22] = target: BDNF/NT-3 growth factors receptor (Homo sapiens) (UniProt Q16620); assay: Binding affinity to wild-type human partial length TRKB (Q547 to G838 residues) expressed in mammalian expression system assessed as residual binding level at 10 uM by Kinomescan method relative to control
# [23] = target: Non-receptor tyrosine-protein kinase TYK2 (Homo sapiens) (UniProt P29597); assay: Binding affinity to wild-type human partial length TYK2 JH1 catalytic domain (V877 to C1187 residues) expressed in mammalian expression system assessed as residual binding level at 10 uM by Kinomescan method relative to control
# [24] = target: Mitogen-activated protein kinase kinase kinase 19 (Homo sapiens) (UniProt Q56UN5); assay: Binding affinity to wild-type human partial length YSK4 (T1019 to H1328 residues) expressed in mammalian expression system assessed as residual binding level at 10 uM by Kinomescan method relative to control
# Sequence of Mitogen-activated protein kinase kinase kinase 19 (Homo sapiens) (Q56UN5 whole entry, the tested form may be a part): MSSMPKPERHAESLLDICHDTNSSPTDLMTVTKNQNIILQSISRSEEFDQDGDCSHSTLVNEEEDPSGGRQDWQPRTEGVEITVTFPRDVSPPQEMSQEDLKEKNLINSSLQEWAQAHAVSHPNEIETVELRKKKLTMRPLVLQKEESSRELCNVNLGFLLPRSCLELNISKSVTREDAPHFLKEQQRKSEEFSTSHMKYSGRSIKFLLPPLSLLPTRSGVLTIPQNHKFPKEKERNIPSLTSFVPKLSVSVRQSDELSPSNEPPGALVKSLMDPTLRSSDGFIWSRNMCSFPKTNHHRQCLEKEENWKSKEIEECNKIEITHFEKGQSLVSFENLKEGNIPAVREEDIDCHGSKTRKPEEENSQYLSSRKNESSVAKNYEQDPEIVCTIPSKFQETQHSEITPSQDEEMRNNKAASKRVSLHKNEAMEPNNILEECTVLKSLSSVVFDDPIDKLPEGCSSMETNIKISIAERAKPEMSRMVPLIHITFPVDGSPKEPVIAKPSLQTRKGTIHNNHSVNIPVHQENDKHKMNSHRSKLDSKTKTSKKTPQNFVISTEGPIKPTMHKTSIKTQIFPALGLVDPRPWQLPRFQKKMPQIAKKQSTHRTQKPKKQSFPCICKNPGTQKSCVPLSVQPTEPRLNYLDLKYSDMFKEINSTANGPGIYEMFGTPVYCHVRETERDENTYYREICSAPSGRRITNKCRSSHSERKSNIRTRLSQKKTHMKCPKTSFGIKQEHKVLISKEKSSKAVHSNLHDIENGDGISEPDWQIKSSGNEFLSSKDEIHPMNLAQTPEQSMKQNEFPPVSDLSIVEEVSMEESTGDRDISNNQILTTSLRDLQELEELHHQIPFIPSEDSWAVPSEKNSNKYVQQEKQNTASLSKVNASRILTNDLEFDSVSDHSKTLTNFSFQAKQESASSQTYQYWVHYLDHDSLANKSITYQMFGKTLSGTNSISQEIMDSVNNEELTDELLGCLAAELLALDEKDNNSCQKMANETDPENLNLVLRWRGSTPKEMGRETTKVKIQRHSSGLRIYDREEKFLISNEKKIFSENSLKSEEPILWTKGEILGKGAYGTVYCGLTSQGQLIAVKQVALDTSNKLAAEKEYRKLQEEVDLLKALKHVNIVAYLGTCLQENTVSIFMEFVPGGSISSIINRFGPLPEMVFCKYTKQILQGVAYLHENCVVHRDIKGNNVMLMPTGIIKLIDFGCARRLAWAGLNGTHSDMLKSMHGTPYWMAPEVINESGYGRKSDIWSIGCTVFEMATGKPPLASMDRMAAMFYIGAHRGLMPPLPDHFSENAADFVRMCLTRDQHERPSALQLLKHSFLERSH
# Sequence of AP2-associated protein kinase 1 (Homo sapiens) (Q2M2I8 whole entry, looked up, the tested form may be a part): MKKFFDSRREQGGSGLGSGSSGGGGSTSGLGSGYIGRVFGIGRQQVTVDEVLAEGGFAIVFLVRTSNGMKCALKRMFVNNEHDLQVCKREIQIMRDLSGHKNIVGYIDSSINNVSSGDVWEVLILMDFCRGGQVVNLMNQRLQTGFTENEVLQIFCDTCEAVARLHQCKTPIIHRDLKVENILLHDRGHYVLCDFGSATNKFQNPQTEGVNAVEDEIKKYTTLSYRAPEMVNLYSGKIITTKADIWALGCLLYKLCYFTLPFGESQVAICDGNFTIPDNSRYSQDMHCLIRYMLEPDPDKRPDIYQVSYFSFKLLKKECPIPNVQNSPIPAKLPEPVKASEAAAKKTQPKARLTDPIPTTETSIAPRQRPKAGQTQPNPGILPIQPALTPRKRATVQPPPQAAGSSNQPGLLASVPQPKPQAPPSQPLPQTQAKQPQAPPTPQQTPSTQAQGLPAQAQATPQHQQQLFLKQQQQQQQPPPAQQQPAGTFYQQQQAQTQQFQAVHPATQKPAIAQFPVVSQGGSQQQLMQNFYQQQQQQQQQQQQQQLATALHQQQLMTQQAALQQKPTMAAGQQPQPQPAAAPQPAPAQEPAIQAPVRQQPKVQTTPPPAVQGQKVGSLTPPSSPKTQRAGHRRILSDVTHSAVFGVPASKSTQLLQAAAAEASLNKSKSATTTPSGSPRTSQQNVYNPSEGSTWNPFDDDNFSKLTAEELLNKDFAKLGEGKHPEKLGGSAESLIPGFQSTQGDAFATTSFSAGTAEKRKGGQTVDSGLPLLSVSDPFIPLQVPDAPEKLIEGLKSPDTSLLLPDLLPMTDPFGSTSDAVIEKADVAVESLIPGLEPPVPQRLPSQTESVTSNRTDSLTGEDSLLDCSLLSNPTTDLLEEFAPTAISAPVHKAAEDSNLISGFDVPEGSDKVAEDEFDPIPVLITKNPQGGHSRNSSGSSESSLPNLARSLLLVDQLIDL
structure (smiles),measurement,setting,value
CC(C)N1C(=O)C(NCCCN(C)C)=C(c2cn(C)c3ccccc23)C1=O.Cl,Activity,[1],100%
same,Activity,[2],100%
same,Activity,[3],89%
same,Activity,[4],85%
same,Activity,[5],100%
same,Activity,[6],84%
same,Activity,[7],88%
same,Activity,[8],100%
same,Activity,[9],100%
same,Activity,[10],83%
same,Activity,[11],71%
same,Activity,[12],88%
same,Activity,[13],100%
same,Activity,[14],94%
same,Activity,[15],99%
same,Activity,[16],99%
same,Activity,[17],99%
same,Activity,[18],75%
same,Activity,[19],100%
same,Activity,[20],95%
same,Activity,[21],100%
same,Activity,[22],94%
same,Activity,[23],82%
same,Activity,[24],96%

# From ChEMBL document CHEMBL4304811, “Development of a Water-Soluble Indolylmaleimide Derivative IM-93 Showing Dual Inhibition of Ferroptosis and NETosis” (ACS Med Chem Lett, 2019)
